# Assay results: PubChem BioAssay (NCI)
# Values joined by “and” are separate entries in the source; they are usually repeats but may differ in a detail not shown here. Equal entries are not always repeated.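 Values below derive from 48-hour exposures of cells grown in 96-well plates, with endpoints linearly interpolated between the two concentrations bracketing the appropriate inhibition level. Abbreviation: GI50, concentration required for 50% inhibition of growth. The concentration for full growth arrest is given as TGI.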
# How the values were obtained:
# Assay in all cases: DTP human tumour cell line panel, 48 h
# MDA-MB-468 breast = tested on: MDA-MB-468 breast
# 786-0 renal = tested on: 786-0 renal
# A498 renal = tested on: A498 renal
# A549 NSCLC = tested on: A549 NSCLC
# ACHN renal = tested on: ACHN renal
# BT-549 breast = tested on: BT-549 breast
# CAKI-1 renal = tested on: CAKI-1 renal
# CCRF-CEM leukemia = tested on: CCRF-CEM leukemia
# DU-145 prostate = tested on: DU-145 prostate
# EKVX NSCLC = tested on: EKVX NSCLC
# HCC-2998 colon = tested on: HCC-2998 colon
# HCT-116 colon = tested on: HCT-116 colon
# HCT-15 colon = tested on: HCT-15 colon
# HL-60(TB) leukemia = tested on: HL-60(TB) leukemia
# HOP-62 NSCLC = tested on: HOP-62 NSCLC
# HOP-92 NSCLC = tested on: HOP-92 NSCLC
# HS 578T breast = tested on: HS 578T breast
# HT29 colon = tested on: HT29 colon
# IGROV1 ovarian = tested on: IGROV1 ovarian
# K-562 leukemia = tested on: K-562 leukemia
# KM12 colon = tested on: KM12 colon
# M14 melanoma = tested on: M14 melanoma
# MALME-3M melanoma = tested on: MALME-3M melanoma
# MCF7 breast = tested on: MCF7 breast
# MDA-MB-231 breast = tested on: MDA-MB-231 breast
# MDA-MB-435 = tested on: MDA-MB-435
# MOLT-4 leukemia = tested on: MOLT-4 leukemia
# NCI-H226 lung = tested on: NCI-H226 lung
# NCI-H23 lung = tested on: NCI-H23 lung
# NCI-H460 lung = tested on: NCI-H460 lung
# NCI-H522 lung = tested on: NCI-H522 lung
# OVCAR-3 ovarian = tested on: OVCAR-3 ovarian
# OVCAR-4 ovarian = tested on: OVCAR-4 ovarian
# OVCAR-5 ovarian = tested on: OVCAR-5 ovarian
# OVCAR-8 ovarian = tested on: OVCAR-8 ovarian
# PC-3 prostate = tested on: PC-3 prostate
# RPMI-8226 leukemia = tested on: RPMI-8226 leukemia
# RXF 393 renal = tested on: RXF 393 renal
# SF-268 CNS = tested on: SF-268 CNS
# SF-295 CNS = tested on: SF-295 CNS
# SF-539 CNS = tested on: SF-539 CNS
# SK-MEL-2 melanoma = tested on: SK-MEL-2 melanoma
# SK-MEL-28 melanoma = tested on: SK-MEL-28 melanoma
# SK-MEL-5 melanoma = tested on: SK-MEL-5 melanoma
# SK-OV-3 ovarian = tested on: SK-OV-3 ovarian
# SN12C renal = tested on: SN12C renal
# SNB-19 CNS = tested on: SNB-19 CNS
# SNB-75 CNS = tested on: SNB-75 CNS
# T-47D breast = tested on: T-47D breast
# TK-10 renal = tested on: TK-10 renal
# U251 CNS = tested on: U251 CNS
# UACC-257 melanoma = tested on: UACC-257 melanoma
# UACC-62 melanoma = tested on: UACC-62 melanoma
# UO-31 renal = tested on: UO-31 renal
compound,measurement,setting,value
CC[C@]1(O)C[C@@H]2CN(Cc3c([nH]c4ccccc34)[C@@](C(=O)OC)(c3cc4c(cc3OC)N(C)[C@H]3[C@@](O)(C(=O)OC)[C@H](OC(C)=O)[C@]5(CC)[C@@H]6C[C@@H]6CN6CC[C@]43[C@@H]65)C2)C1,GI50,MDA-MB-468 breast,0.017 µM
O=C(Nc1ccc(Cl)c(Cl)c1)Nc1ccc(Cl)c([N+](=O)[O-])c1,GI50,MDA-MB-468 breast,0.884 µM
same,TGI,MDA-MB-468 breast,3.52 µM
N#Cc1c(N)nn(C(=O)c2ccc(NC(=O)c3ccccn3)cc2)c1-c1ccc(Cl)cc1,GI50,MDA-MB-468 breast,2.43 µM
same,TGI,MDA-MB-468 breast,6.64 µM
O=C(Nc1ccccc1)c1cc2c(cc1Cl)Sc1nccn1S2(=O)=O,GI50,MDA-MB-468 breast,5.47 µM
same,TGI,MDA-MB-468 breast,26.3 µM
CCc1cc(C(N)=O)ccc1-n1nc(C(C)C)c2c(-n3cnc(-c4cnn(C)c4)c3)ccnc21,GI50,MDA-MB-468 breast,0.821 µM
same,TGI,MDA-MB-468 breast,> 22.2 µM
O=C(/C=C/c1cccc(OCc2ccccc2)c1)c1nc2ccccc2[nH]1,GI50,786-0 renal,14 µM
same,TGI,786-0 renal,44.1 µM
same,GI50,A498 renal,25 µM
same,TGI,A498 renal,> 100 µM
same,GI50,A549 NSCLC,49.9 µM
same,TGI,A549 NSCLC,> 100 µM
same,GI50,ACHN renal,29.6 µM
same,TGI,ACHN renal,> 100 µM
same,GI50,BT-549 breast,11.4 µM
same,TGI,BT-549 breast,40.2 µM
same,GI50,CAKI-1 renal,14 µM
same,TGI,CAKI-1 renal,> 100 µM
same,GI50,CCRF-CEM leukemia,8.99 µM
same,TGI,CCRF-CEM leukemia,> 100 µM
same,GI50,DU-145 prostate,54.6 µM
same,TGI,DU-145 prostate,> 100 µM
same,GI50,EKVX NSCLC,19.9 µM
same,TGI,EKVX NSCLC,69.7 µM
same,GI50,HCC-2998 colon,7.19 µM
same,TGI,HCC-2998 colon,41.3 µM
same,GI50,HCT-116 colon,3.2 µM
same,TGI,HCT-116 colon,> 100 µM
same,GI50,HCT-15 colon,3.06 µM
same,TGI,HCT-15 colon,> 100 µM
same,GI50,HL-60(TB) leukemia,4.39 µM
same,TGI,HL-60(TB) leukemia,25 µM
same,GI50,HOP-62 NSCLC,17.8 µM
same,TGI,HOP-62 NSCLC,43.2 µM
same,GI50,HOP-92 NSCLC,6.51 µM
same,TGI,HOP-92 NSCLC,37.2 µM
same,GI50,HS 578T breast,20.3 µM
same,TGI,HS 578T breast,82.5 µM
same,GI50,HT29 colon,3.98 µM
same,TGI,HT29 colon,> 100 µM
same,GI50,IGROV1 ovarian,14 µM
same,TGI,IGROV1 ovarian,78.2 µM
same,GI50,K-562 leukemia,4.14 µM
same,TGI,K-562 leukemia,> 100 µM
same,GI50,KM12 colon,3.56 µM
same,TGI,KM12 colon,> 100 µM
same,GI50,M14 melanoma,45.1 µM
same,TGI,M14 melanoma,> 100 µM
same,GI50,MALME-3M melanoma,28.3 µM
same,TGI,MALME-3M melanoma,> 100 µM
same,GI50,MCF7 breast,2.9 µM
same,TGI,MCF7 breast,> 100 µM
same,GI50,MDA-MB-231 breast,11.9 µM
same,TGI,MDA-MB-231 breast,42.5 µM
same,GI50,MDA-MB-435,> 100 µM
same,TGI,MDA-MB-435,> 100 µM
same,GI50,MDA-MB-468 breast,10.7 µM
same,TGI,MDA-MB-468 breast,82.5 µM
same,GI50,MOLT-4 leukemia,5.28 µM
same,TGI,MOLT-4 leukemia,55.1 µM
same,GI50,NCI-H226 lung,24.3 µM
same,TGI,NCI-H226 lung,> 100 µM
same,GI50,NCI-H23 lung,18.3 µM
same,TGI,NCI-H23 lung,> 100 µM
same,GI50,NCI-H460 lung,15.4 µM
same,TGI,NCI-H460 lung,> 100 µM
same,GI50,NCI-H522 lung,26.3 µM
same,TGI,NCI-H522 lung,> 100 µM
same,GI50,OVCAR-3 ovarian,4.01 µM
same,TGI,OVCAR-3 ovarian,> 100 µM
same,GI50,OVCAR-4 ovarian,23.9 µM
same,TGI,OVCAR-4 ovarian,> 100 µM
same,GI50,OVCAR-5 ovarian,25.2 µM
same,TGI,OVCAR-5 ovarian,> 100 µM
same,GI50,OVCAR-8 ovarian,17 µM
same,TGI,OVCAR-8 ovarian,72.6 µM
same,GI50,PC-3 prostate,15.9 µM
same,TGI,PC-3 prostate,> 100 µM
same,GI50,RPMI-8226 leukemia,2.86 µM
same,TGI,RPMI-8226 leukemia,8.3 µM
same,GI50,RXF 393 renal,10.5 µM
same,TGI,RXF 393 renal,27.9 µM
same,GI50,SF-268 CNS,26.2 µM
same,TGI,SF-268 CNS,> 100 µM
same,GI50,SF-295 CNS,15.6 µM
same,TGI,SF-295 CNS,37.9 µM
same,GI50,SF-539 CNS,8.82 µM
same,TGI,SF-539 CNS,26.7 µM
same,GI50,SK-MEL-2 melanoma,22.5 µM
same,TGI,SK-MEL-2 melanoma,64.8 µM
same,GI50,SK-MEL-28 melanoma,25.2 µM
same,TGI,SK-MEL-28 melanoma,> 100 µM
same,GI50,SK-MEL-5 melanoma,39.1 µM
same,TGI,SK-MEL-5 melanoma,> 100 µM
same,GI50,SK-OV-3 ovarian,20.2 µM
same,TGI,SK-OV-3 ovarian,73.9 µM
same,GI50,SN12C renal,38 µM
same,TGI,SN12C renal,> 100 µM
same,GI50,SNB-19 CNS,13.6 µM
same,TGI,SNB-19 CNS,41.1 µM
same,GI50,SNB-75 CNS,14.4 µM
same,TGI,SNB-75 CNS,48.7 µM
same,GI50,T-47D breast,6.9 µM
same,TGI,T-47D breast,> 100 µM
same,GI50,TK-10 renal,28.6 µM
same,TGI,TK-10 renal,> 100 µM
same,GI50,U251 CNS,3.03 µM
same,TGI,U251 CNS,10.2 µM
same,GI50,UACC-257 melanoma,> 100 µM
same,TGI,UACC-257 melanoma,> 100 µM
same,GI50,UACC-62 melanoma,15.6 µM
same,TGI,UACC-62 melanoma,> 100 µM
same,GI50,UO-31 renal,8.96 µM
same,TGI,UO-31 renal,> 100 µM
Cc1cc(Cl)n2c(nc3ccccc32)c1C#N,GI50,MDA-MB-468 breast,0.394 µM
same,TGI,MDA-MB-468 breast,1.84 µM
CC/C(=C(\c1ccccc1)c1ccc(OCCN(C)C)cc1)c1ccccc1,GI50,MDA-MB-468 breast,1.34 µM and 1.95 µM and 3.92 µM
same,TGI,MDA-MB-468 breast,6.48 µM and 5.44 µM and 7.97 µM
CCOc1ccc([C@H]2C(C(=O)c3ccc(Cl)cc3)C3(N[C@@H]2c2ccccc2)C(=O)Nc2ccc(Br)cc23)cc1 (stereo not given in full),GI50,MDA-MB-468 breast,16.6 µM
same,TGI,MDA-MB-468 breast,41.8 µM
O=C(CCCCCCc1nc2ccc(Br)cc2[nH]1)NO,GI50,MDA-MB-468 breast,0.248 µM
same,TGI,MDA-MB-468 breast,6.37 µM
CCOC(=O)c1cc2c(n1Cc1cccc(OC)c1)-c1oncc1CC2,GI50,MDA-MB-468 breast,0.346 µM
same,TGI,MDA-MB-468 breast,2.49 µM
CCN(CC)CCn1c(=N)n(CC(O)c2ccc(Cl)c(Cl)c2)c2ccccc21 (stereo not given),GI50,MDA-MB-468 breast,2.49 µM
same,TGI,MDA-MB-468 breast,8.09 µM
COc1ccc(C(=O)c2cc3c(N)c(C(=O)Nc4cccc(Cl)c4)sc3nc2C)cc1,GI50,MDA-MB-468 breast,0.859 µM
same,TGI,MDA-MB-468 breast,2.83 µM
CCOC(=O)c1cnc2ccc(Cl)cc2c1NCCCN(C)C,GI50,MDA-MB-468 breast,16.2 µM
same,TGI,MDA-MB-468 breast,45.4 µM
FC(F)(F)c1ccc2nc(-c3nc(-c4ccccc4)n4ccccc34)[nH]c2c1,GI50,MDA-MB-468 breast,2.02 µM
same,TGI,MDA-MB-468 breast,7.31 µM
